System: NCI-H196 complex spheroids with HUVEC/MSC, growth % T/C
Experiment: Anticancer human tumor NCI-H196 cell line growth inhibition [Asc];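 further: spheroids exposed to compound for 7 days before measurement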;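 on viability, T/C: 100% = DMSO vehicle control wells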
Settings: for IC50: curve of first compound; for viability, T/C: stronger effect = lower value
Method: Multicellular complex tumor spheroid response to apoptosis pathway targeting inhibitors Alrizomadlin, Pelcitoclax, and Dasminapant in combination with a variety of drugs and investigational agents in selected tumor cell lines
The MDM2 inhibitor alrizomadlin, the Bcl-2/Bcl-xL inhibitor pelcitoclax, and the IAPs inhibitor dasminapant were evaluated both individually and in combination with standard of care and investigational anticancer small molecules within a complex spheroid model of solid tumors. . Complex spheroids include a stromal component modeled by human endothelial cells (HUVEC) and fibroblasts modeled by human mesenchymal stem cells (MSCs). The concentration ranges selected for each drug and investigational agent were based upon clinically achievable concentrations if the clinical Cmax of the agent was known.
Compounds. The drugs and investigational agents: alrizomadlin (APG-115; NSC831270), pelcitoclax (APG-1252; NSC835773), dasminapant (APG-1387;NSC834197), TAK-243 (NSC785004), copanlisib (NSC809693), olaparib (NSC753686), talazoparib (NSC767125), cobimetinib (NSC 768068), eltanexor (KPT-8602, NSC 794443), abemaciclib (NSC 768073), sotorasib (NSC818433), adagrasib (NSC 831453), MRTX-1133 (NSC 836407), Iadademestat (ORY1001, NSC 806812), and RMC-4630 (NSC839698), were obtained from the NCI Developmental Therapeutics Program Chemical Repository. The FDA-approved anticancer drug set is available from the Developmental Therapeutics Program at https://dtp.cancer.gov/organization/dscb/obtaining/available plates.htm. […] The stock solutions were prepared in dimethyl sulfoxide (DMSO, Sigma-Aldrich, St. Louis, MO, cat. D2650) at 800-fold the tested concentration and stored at -70 degrees C prior to their use. All drugs and investigational agents were tested over a range starting from a high concentration at or near the clinical Cmax and decreasing in half-log increments. If the clinical Cmax for an agent had not been determined, the highest concentration tested was 10 microM.
The patient-derived cancer (PDC) cell lines include five colon adenocarcinomas: 186277-243-T-J2-PDC, 616215-338-R-J1-PDC, 439559-082-T-J2-PDC, 463943-066-T-J2-PDC, and 519858-162-T-J1-PDC; three pancreatic carcinomas: 323965-272-R-J2-PDC, 521955-158-R6-J3-PDC, and 521955-158-R2-J5-PDC; two uterine sarcomas: 327498-152-R-J2-PDC and 993429-296-R-J1-PDC; two rhabdomyosarcomas: 755483-174-R-J1-PDC and 772245-204-R-J1-PDC; two soft tissue sarcomas: 126254-015-R-J1-PDC and 494315-158-R-J1-PDC; two malignant fibrous histiocytomas: 317291-083-R-J1-PDC and 596521-263-R-J1-PDC; two breast carcinomas: 171881-019-R-J1-PDC and 885512-296-R-J2-PDC; and one ovarian carcinoma: 6556581-035-R-J-PDC were obtained from the NCI PDMR, (https://pdmr.cancer.gov). The established cell lines HSSY-2 synovial sarcoma (RRID:CVCL 8719), SYO-1 synovial sarcoma (RRID:CVCL_7146), MPNST malignant peripheral neural sheath tumor were obtained from the Sloan Kettering Institute. The following established cell lines were purchased from the American Type Culture Collection (ATCC, Manassas, VA), Sor the received from the NCI repository:, PANC-1 pancreatic carcinoma (CRL-1469, RRID:CVCL_0480), OVCAR-5 ovarian carcinoma (RRID:CVCL_1628), OVCAR-8 ovarian carcinoma (RRID:CVCL_1629), , MCF-7 breast carcinoma (CRL-12584, RRID:CVCL_0031), MDA-MB-231 breast carcinoma (CRL-12532, RRID:CVCL_0062), NCI-H1876 small cell lung carcinoma (CRL-5902, RRID:CVCL_1503), NCI-H510A small cell lung carcinoma (HTB-184, RRID:CVCL_1565), NCI-H1417 (CRL-5869, RRID:CVCL_1469), and NCI-H196 small cell lung carcinoma (CRL-5823, RRID:CVCL_1509). Dr. Peter Houghton (Greehey Children's Cancer Research Institute, University of Texas Health Science Center, San Antonio, TX) provided Rh-18 rhabdomyosarcoma (RRID:CVCL_1659). Pooled donor human umbilical vein endothelial cells (HUVEC, Lonza, cat. CC-2519) and human mesenchymal stem cells (hMSC, Lonza, cat. PT-2501) were purchased from Lonza (Walkersville, MD).
Cell Culture. […]

CCN1C(C(=O)NC23CCC(C(=O)O)(CC2)CC3)C(c2cccc(Cl)c2F)C2(C(=O)Nc3cc(Cl)ccc32)C12CCCCC2 (stereo not given) + Cc1c(S(C)(=O)=O)c(-c2cc(F)cc(N3CCN(c4ccc(NS(=O)(=O)c5ccc(NC(CCN6CCC(C(=O)OCCCP(=O)(O)O)CC6)CSc6ccccc6)c(S(=O)(=O)C(F)(F)F)c5)cc4)CC3)c2)c(-c2ccc(Cl)cc2)n1C(C)C
IC50 (second compound 0.1 µM): > 3000 nM
IC50 (second compound 0.316 µM): > 3000 nM
IC50 (second compound 1 µM): > 3000 nM
IC50 (second compound 3.16 µM): 2850 nM
IC50 (second compound 10 µM): 1660 nM
viability, T/C (second compound 0.1 µM, first compound 0.00949 µM): 89.3%
viability, T/C (second compound 0.1 µM, first compound 0.03 µM): 104%
viability, T/C (second compound 0.1 µM, first compound 0.0949 µM): 91.2%
viability, T/C (second compound 0.1 µM, first compound 0.3 µM): 91.5%
viability, T/C (second compound 0.1 µM, first compound 0.949 µM): 92.2%
viability, T/C (second compound 0.1 µM, first compound 3 µM): 86.4%
viability, T/C (second compound 0.316 µM, first compound 0.00949 µM): 89.6%
viability, T/C (second compound 0.316 µM, first compound 0.03 µM): 89.7%
viability, T/C (second compound 0.316 µM, first compound 0.0949 µM): 95.5%
viability, T/C (second compound 0.316 µM, first compound 0.3 µM): 85.3%
viability, T/C (second compound 0.316 µM, first compound 0.949 µM): 88.3%
viability, T/C (second compound 0.316 µM, first compound 3 µM): 69.4%
viability, T/C (second compound 1 µM, first compound 0.00949 µM): 84.3%
viability, T/C (second compound 1 µM, first compound 0.03 µM): 83%
viability, T/C (second compound 1 µM, first compound 0.0949 µM): 87.5%
viability, T/C (second compound 1 µM, first compound 0.3 µM): 80.8%
viability, T/C (second compound 1 µM, first compound 0.949 µM): 78.9%
viability, T/C (second compound 1 µM, first compound 3 µM): 62.6%
viability, T/C (second compound 3.16 µM, first compound 0.00949 µM): 77.9%
viability, T/C (second compound 3.16 µM, first compound 0.03 µM): 82.5%
viability, T/C (second compound 3.16 µM, first compound 0.0949 µM): 72.5%
viability, T/C (second compound 3.16 µM, first compound 0.3 µM): 72.3%
viability, T/C (second compound 3.16 µM, first compound 0.949 µM): 66.2%
viability, T/C (second compound 3.16 µM, first compound 3 µM): 48.7%
viability, T/C (second compound 10 µM, first compound 0.00949 µM): 70.2%
viability, T/C (second compound 10 µM, first compound 0.03 µM): 79.1%
viability, T/C (second compound 10 µM, first compound 0.0949 µM): 70.1%
viability, T/C (second compound 10 µM, first compound 0.3 µM): 73.2%
viability, T/C (second compound 10 µM, first compound 0.949 µM): 59%
viability, T/C (second compound 10 µM, first compound 3 µM): 38.6%

C=CC(=O)N1CCN(c2nc(=O)n(-c3c(C)ccnc3C(C)C)c3nc(-c4c(O)cccc4F)c(F)cc23)C(C)C1 (stereo not given) + CNC(C)C(=O)NC1CN(S(=O)(=O)c2cccc(S(=O)(=O)N3CCC4CCC(C(=O)NC(c5ccccc5)c5ccccc5)N4C(=O)C(NC(=O)C(C)NC)C3)c2)CCC2CCC(C(=O)NC(c3ccccc3)c3ccccc3)N2C1=O
IC50 (second compound 0.01 µM): < 31.6 nM
IC50 (second compound 0.0316 µM): < 31.6 nM
IC50 (second compound 0.1 µM): < 31.6 nM
IC50 (second compound 0.316 µM): < 31.6 nM
IC50 (second compound 1 µM): < 31.6 nM
viability, T/C (second compound 0.01 µM, first compound 0.0316 µM): 8.2%
viability, T/C (second compound 0.01 µM, first compound 0.1 µM): 7.68%
viability, T/C (second compound 0.01 µM, first compound 0.316 µM): 5.38%
viability, T/C (second compound 0.01 µM, first compound 1 µM): 6.44%
viability, T/C (second compound 0.01 µM, first compound 3.16 µM): 8.71%
viability, T/C (second compound 0.01 µM, first compound 10 µM): 9.87%
viability, T/C (second compound 0.0316 µM, first compound 0.0316 µM): 3.84%
viability, T/C (second compound 0.0316 µM, first compound 0.1 µM): 5.12%
viability, T/C (second compound 0.0316 µM, first compound 0.316 µM): 5.38%
viability, T/C (second compound 0.0316 µM, first compound 1 µM): 8.69%
viability, T/C (second compound 0.0316 µM, first compound 3.16 µM): 6.93%
viability, T/C (second compound 0.0316 µM, first compound 10 µM): 7.56%
viability, T/C (second compound 0.1 µM, first compound 0.0316 µM): 3.27%
viability, T/C (second compound 0.1 µM, first compound 0.1 µM): 3.83%
viability, T/C (second compound 0.1 µM, first compound 0.316 µM): 3.69%
viability, T/C (second compound 0.1 µM, first compound 1 µM): 4.2%
viability, T/C (second compound 0.1 µM, first compound 3.16 µM): 7.47%
viability, T/C (second compound 0.1 µM, first compound 10 µM): 9.85%
viability, T/C (second compound 0.316 µM, first compound 0.0316 µM): 3.58%
viability, T/C (second compound 0.316 µM, first compound 0.1 µM): 3.64%
viability, T/C (second compound 0.316 µM, first compound 0.316 µM): 6.15%
viability, T/C (second compound 0.316 µM, first compound 1 µM): 3.67%
viability, T/C (second compound 0.316 µM, first compound 3.16 µM): 4.47%
viability, T/C (second compound 0.316 µM, first compound 10 µM): 6.52%
viability, T/C (second compound 1 µM, first compound 0.0316 µM): 3.22%
viability, T/C (second compound 1 µM, first compound 0.1 µM): 3.89%
viability, T/C (second compound 1 µM, first compound 0.316 µM): 3.25%
viability, T/C (second compound 1 µM, first compound 1 µM): 3.51%
viability, T/C (second compound 1 µM, first compound 3.16 µM): 5.33%
viability, T/C (second compound 1 µM, first compound 10 µM): 9.94%
